Assay results: US11655246B2, “Aminothiazole compounds as inhibitors of CTPS1” (STEP PHARMA S.A.S., priority 2017, dated 2023)
“And” between values parts separate entries of the source, which are not always exact repeats. Equal entries are not always repeated.

Each compound was assayed against T1, human CTPS1 (Homo sapiens, UniProt P17812) (assay: Human CTPS1 enzyme inhibition (ADP-Glo Max assay)). Conditions: Table 18, additional potency data, 25° C., read-out: CTPS1 (Human CTPS1 Enzyme Inhibition data grouped by potency range).
T1 construct: purchased Proteros biostructures GmbH
T1 sequence (P17812 1-591): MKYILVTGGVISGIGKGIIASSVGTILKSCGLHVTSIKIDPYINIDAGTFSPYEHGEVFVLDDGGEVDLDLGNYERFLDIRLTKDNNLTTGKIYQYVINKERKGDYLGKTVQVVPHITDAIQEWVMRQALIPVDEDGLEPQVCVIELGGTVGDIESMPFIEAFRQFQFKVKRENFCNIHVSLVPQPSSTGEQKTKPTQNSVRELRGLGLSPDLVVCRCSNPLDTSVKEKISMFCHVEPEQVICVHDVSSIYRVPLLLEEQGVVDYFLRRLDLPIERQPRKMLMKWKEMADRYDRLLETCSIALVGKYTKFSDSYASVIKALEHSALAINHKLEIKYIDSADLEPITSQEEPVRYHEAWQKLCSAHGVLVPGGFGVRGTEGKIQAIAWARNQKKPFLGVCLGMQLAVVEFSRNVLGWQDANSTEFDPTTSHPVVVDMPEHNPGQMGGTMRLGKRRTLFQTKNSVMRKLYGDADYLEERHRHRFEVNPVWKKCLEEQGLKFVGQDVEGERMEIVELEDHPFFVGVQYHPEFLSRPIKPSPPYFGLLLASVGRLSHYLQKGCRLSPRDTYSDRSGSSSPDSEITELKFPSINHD
Assay type: biochemical
In short: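 ADP-Glo Max luminescence detection of ATP-to-ADP conversion by the enzyme, in 50 mM Tris, 10 mM MgCl2, 0.01% Tween-20, pH 8.0, with 2 mM L-cysteine added fresh. Enzyme preincubated with compound 10 minutes at 25° C. Percentage inhibition calculated per compound concentration.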

Row | SMILES | IC50
1 | COC(C)(C)c1cncc(-c2ccc(NC(=O)C(C)(C)c3csc(NS(=O)(=O)C4CC4)n3)nc2)n1 [T339, 2-(2-(cyclopropanesulfonamido)thiazol-4-yl)-N-(5-(6-(2-methoxypropan-2-yl)pyrazin-2-yl)pyridin-2-yl)-2-methylpropanamide] | 1000 to 10000 nM
2 | Cc1sc(NS(=O)(=O)C2CC2)nc1C(C)(C)C(=O)Nc1ccc(-c2cncc(C(F)(F)F)n2)cn1 [T340, 2-(2-(cyclopropanesulfonamido)-5-methylthiazol-4-yl)-2-methyl-N-(5-(6-(trifluoromethyl)pyrazin-2-yl)pyridin-2-yl)propanamide] | 100 to 1000 nM
3 | CCOc1cncc(-c2ccc(NC(=O)C(C)(C)c3csc(NS(=O)(=O)C4CC4)n3)nc2)n1 [T341, 2-(2-(cyclopropanesulfonamido)thiazol-4-yl)-N-(5-(6-ethoxypyrazin-2-yl)pyridin-2-yl)-2-methylpropanamide] | < 100 nM
4 | CCOc1cncc(-c2ccc(NC(=O)C(C)(C)c3nc(NS(=O)(=O)C4CC4)sc3C)nc2)n1 [T342, 2-(2-(cyclopropanesulfonamido)-5-methylthiazol-4-yl)-N-(5-(6-ethoxypyrazin-2-yl)pyridin-2-yl)-2-methylpropanamide] | < 100 nM
5 | CC(C)(C(=O)Nc1ccc(-c2cncc(Cl)c2)cc1C(F)(F)F)c1csc(NS(=O)(=O)C2CC2)n1 [T343, N-(4-(5-chloropyridin-3-yl)-2-(trifluoromethyl)phenyl)-2-(2-(cyclopropanesulfonamido)thiazol-4-yl)-2-methylpropanamide] | < 100 nM
6 | CC(C)(C(=O)Nc1ccc(-c2cncc(C#N)c2)cc1C(F)(F)F)c1csc(NS(=O)(=O)C2CC2)n1 [T344, N-(4-(5-cyanopyridin-3-yl)-2-(trifluoromethyl)phenyl)-2-(2-(cyclopropanesulfonamido)thiazol-4-yl)-2-methylpropanamide] | < 100 nM
7 | CC(C)(C(=O)Nc1ccc(-c2cncc(F)c2)cc1C(F)(F)F)c1csc(NS(=O)(=O)C2CC2)n1 [T345, 2-(2-(cyclopropanesulfonamido)thiazol-4-yl)-N-(4-(5-fluoropyridin-3-yl)-2-(trifluoromethyl)phenyl)-2-methylpropanamide] | < 100 nM
8 | CC(C)(C(=O)Nc1ccc(-c2cncc(C(F)(F)F)n2)cc1C(F)(F)F)c1csc(NS(=O)(=O)C2CC2)n1 [T346, 2-(2-(cyclopropanesulfonamido)thiazol-4-yl)-2-methyl-N-(2-(trifluoromethyl)-4-(6-(trifluoromethyl)pyrazin-2-yl)phenyl)propanamide] | 100 to 1000 nM
9 | CCOc1cncc(-c2ccc(NC(=O)C(C)(C)c3csc(NS(=O)(=O)C4CC4)n3)c(C(F)(F)F)c2)n1 [T347, 2-(2-(cyclopropanesulfonamido)thiazol-4-yl)-N-(4-(6-ethoxypyrazin-2-yl)-2-(trifluoromethyl)phenyl)-2-methylpropanamide] | < 100 nM
10 | CCc1cc(-c2cncc(Cl)c2)cc(CC)c1NC(=O)C(C)(C)c1csc(NS(=O)(=O)C2CC2)n1 [T348, N-(4-(5-chloropyridin-3-yl)-2,6-diethylphenyl)-2-(2-(cyclopropanesulfonamido)thiazol-4-yl)-2-methylpropanamide] | 100 to 1000 nM
11 | CCc1cc(-c2cncc(C#N)c2)cc(CC)c1NC(=O)C(C)(C)c1csc(NS(=O)(=O)C2CC2)n1 [T349, N-(4-(5-cyanopyridin-3-yl)-2,6-diethylphenyl)-2-(2-(cyclopropanesulfonamido)thiazol-4-yl)-2-methylpropanamide] | 100 to 1000 nM
12 | Cc1sc(NS(=O)(=O)C2CC2)nc1C(C)(C)C(=O)Nc1ccc(-c2cncc(C(F)(F)F)c2)cc1F [T350, 2-(2-(cyclopropanesulfonamido)-5-methylthiazol-4-yl)-N-(2-fluoro-4-(5-(trifluoromethyl)pyridin-3-yl)phenyl)-2-methylpropanamide] | 100 to 1000 nM
13 | CC(C)(C(=O)Nc1c(F)cc(-c2cncc(Cl)c2)cc1F)c1csc(NS(=O)(=O)C2CC2)n1 [T351, N-(4-(5-chloropyridin-3-yl)-2,6-difluorophenyl)-2-(2-(cyclopropanesulfonamido)thiazol-4-yl)-2-methylpropanamide] | 100 to 1000 nM and < 100 nM
14 | Cc1cc(NC(=O)C(C)(C)c2csc(NS(=O)(=O)C3CC3)n2)c(F)cc1-c1cncc(Cl)c1 [T352, N-(4-(5-chloropyridin-3-yl)-2-fluoro-5-methylphenyl)-2-(2-(cyclopropanesulfonamido)thiazol-4-yl)-2-methylpropanamide] | 100 to 1000 nM
15 | COC(C)(C)c1cncc(-c2ccc(NC(=O)C(C)(C)c3csc(NS(=O)(=O)C4CC4)n3)c(F)c2)n1 [T353, 2-(2-(cyclopropanesulfonamido)thiazol-4-yl)-N-(2-fluoro-4-(6-(2-methoxypropan-2-yl)pyrazin-2-yl)phenyl)-2-methylpropanamide] | 100 to 1000 nM
16 | Cc1sc(NS(=O)(=O)C2CC2)nc1C(C)(C)C(=O)Nc1ccc(-c2cncc(C(F)(F)F)n2)cc1F [T354, 2-(2-(cyclopropanesulfonamido)-5-methylthiazol-4-yl)-N-(2-fluoro-4-(6-(trifluoromethyl)pyrazin-2-yl)phenyl)-2-methylpropanamide] | 100 to 1000 nM
17 | CC(C)(C(=O)Nc1ccc(-c2cncc(C#N)n2)cc1F)c1csc(NS(=O)(=O)C2CC2)n1 [T355, N-(4-(6-cyanopyrazin-2-yl)-2-fluorophenyl)-2-(2-(cyclopropanesulfonamido)thiazol-4-yl)-2-methylpropanamide] | 1000 to 10000 nM
18 | CCc1cncc(-c2ccc(NC(=O)C(C)(C)c3csc(NS(=O)(=O)C4CC4)n3)c(F)c2)n1 [T356, 2-(2-(cyclopropanesulfonamido)thiazol-4-yl)-N-(4-(6-ethylpyrazin-2-yl)-2-fluorophenyl)-2-methylpropanamide] | < 100 nM
19 | CC(C)Oc1cncc(-c2ccc(NC(=O)C(C)(C)c3csc(NS(=O)(=O)C4CC4)n3)c(F)c2)n1 [T357, 2-(2-(cyclopropanesulfonamido)thiazol-4-yl)-N-(2-fluoro-4-(6-isopropoxypyrazin-2-yl)phenyl)-2-methylpropanamide] | < 100 nM
20 | CCOc1cncc(-c2ccc(NC(=O)C(C)(C)c3nc(NS(=O)(=O)C4CC4)sc3C)c(F)c2)n1 [T358, 2-(2-(cyclopropanesulfonamido)-5-methylthiazol-4-yl)-N-(4-(6-ethoxypyrazin-2-yl)-2-fluorophenyl)-2-methylpropanamide] | < 100 nM
21 | CC(C)c1cc(-c2cncc(Cl)c2)ccc1NC(=O)C(C)(C)c1csc(NS(=O)(=O)C2CC2)n1 [T359, N-(4-(5-chloropyridin-3-yl)-2-isopropylphenyl)-2-(2-(cyclopropanesulfonamido)thiazol-4-yl)-2-methylpropanamide] | < 100 nM
22 | CC(C)c1cc(-c2cncc(C#N)c2)ccc1NC(=O)C(C)(C)c1csc(NS(=O)(=O)C2CC2)n1 [T360, N-(4-(5-cyanopyridin-3-yl)-2-isopropylphenyl)-2-(2-(cyclopropanesulfonamido)thiazol-4-yl)-2-methylpropanamide] | 100 to 1000 nM
23 | CC(C)c1cc(-c2cncc(C(F)(F)F)n2)ccc1NC(=O)C(C)(C)c1csc(NS(=O)(=O)C2CC2)n1 [T361, 2-(2-(cyclopropanesulfonamido)thiazol-4-yl)-N-(2-isopropyl-4-(6-(trifluoromethyl)pyrazin-2-yl)phenyl)-2-methylpropanamide] | 100 to 1000 nM
24 | CCOc1cncc(-c2ccc(NC(=O)C(C)(C)c3csc(NS(=O)(=O)C4CC4)n3)c(C(C)C)c2)n1 [T362, 2-(2-(cyclopropanesulfonamido)thiazol-4-yl)-N-(4-(6-ethoxypyrazin-2-yl)-2-isopropylphenyl)-2-methylpropanamide] | < 100 nM
25 | Cc1c(NC(=O)C(C)(C)c2csc(NS(=O)(=O)C3CC3)n2)ccc(-c2cncc(Cl)c2)c1F [T363, N-(4-(5-chloropyridin-3-yl)-3-fluoro-2-methylphenyl)-2-(2-(cyclopropanesulfonamido)thiazol-4-yl)-2-methylpropanamide] | < 100 nM
26 | Cc1cc(-c2cncc(Cl)c2)c(F)cc1NC(=O)C(C)(C)c1csc(NS(=O)(=O)C2CC2)n1 [T364, N-(4-(5-chloropyridin-3-yl)-5-fluoro-2-methylphenyl)-2-(2-(cyclopropanesulfonamido)thiazol-4-yl)-2-methylpropanamide] | 100 to 1000 nM
27 | Cc1c(NC(=O)C(C)(C)c2csc(NS(=O)(=O)C3CC3)n2)ccc(-c2cncc(Cl)c2)c1C [T365, N-(4-(5-chloropyridin-3-yl)-2,3-dimethylphenyl)-2-(2-(cyclopropanesulfonamido)thiazol-4-yl)-2-methylpropanamide] | < 100 nM
28 | Cc1cc(-c2cncc(Cl)c2)c(C)cc1NC(=O)C(C)(C)c1csc(NS(=O)(=O)C2CC2)n1 [T366, N-(4-(5-chloropyridin-3-yl)-2,5-dimethylphenyl)-2-(2-(cyclopropanesulfonamido)thiazol-4-yl)-2-methylpropanamide] | 100 to 1000 nM
29 | Cc1c(NC(=O)C(C)(C)c2csc(NS(=O)(=O)C3CC3)n2)ccc(-c2cncc(C#N)c2)c1F [T367, N-(4-(5-cyanopyridin-3-yl)-3-fluoro-2-methylphenyl)-2-(2-(cyclopropanesulfonamido)thiazol-4-yl)-2-methylpropanamide] | < 100 nM
